Here are results for 21 compounds from patent US11964973B2 (priority 2019, dated 2024).

Where two headings read alike, the source gives them in different places.

Assay [1] has as its target DGKα (Homo sapiens (Human), UniProt P23743). The assay can be described thus: biochemical. It is filed as biochemical.
Assay [2] addresses human DGKζ (Homo sapiens (Human), UniProt Q13574). Nature of the assay: biochemical. It is filed as biochemical.
Assay [3] deals with Human venous whole blood (IFN-γ). The assay can be described thus: Human whole blood IFN-γ assay. It is filed as cell-based. On the procedure: Assay 10: Human Whole Blood IFN-γ Assay
Human venous whole blood (22.5 μL per well), obtained from healthy donors, was pre-treated with compounds for one hour at 37° C. in a humidified 95% air/5% CO2 incubator. The blood was stimulated with 2.5 μL anti-human CD3 and anti-CD28 mAb at a final concentration of 1 μg/mL each for 24 hours at 37° C. IFN-γ in the supernatants was measured using AlphLISA kit (Cat #AL217).

Where [4] appears, read: liposome (LIPGLO) assay, read-out: DGKα LIPGLO IC50.
The mark [5] stands for this setting: liposome (LIPGLO) assay, read-out: DGKζ LIPGLO IC50.
Where [6] appears, read: Homo sapiens, 24 h, human whole blood, anti-CD3 plus anti-CD28, 24 hours, read-out: INFg Whole Blood Normalized Agonist EC50.
Where [7] appears, read: human whole blood, anti-CD3 plus anti-CD28, 24 hours, read-out: INFg Whole Blood Normalized Agonist EC50.

Chain of human DGKζ (Q13574 whole entry, looked up): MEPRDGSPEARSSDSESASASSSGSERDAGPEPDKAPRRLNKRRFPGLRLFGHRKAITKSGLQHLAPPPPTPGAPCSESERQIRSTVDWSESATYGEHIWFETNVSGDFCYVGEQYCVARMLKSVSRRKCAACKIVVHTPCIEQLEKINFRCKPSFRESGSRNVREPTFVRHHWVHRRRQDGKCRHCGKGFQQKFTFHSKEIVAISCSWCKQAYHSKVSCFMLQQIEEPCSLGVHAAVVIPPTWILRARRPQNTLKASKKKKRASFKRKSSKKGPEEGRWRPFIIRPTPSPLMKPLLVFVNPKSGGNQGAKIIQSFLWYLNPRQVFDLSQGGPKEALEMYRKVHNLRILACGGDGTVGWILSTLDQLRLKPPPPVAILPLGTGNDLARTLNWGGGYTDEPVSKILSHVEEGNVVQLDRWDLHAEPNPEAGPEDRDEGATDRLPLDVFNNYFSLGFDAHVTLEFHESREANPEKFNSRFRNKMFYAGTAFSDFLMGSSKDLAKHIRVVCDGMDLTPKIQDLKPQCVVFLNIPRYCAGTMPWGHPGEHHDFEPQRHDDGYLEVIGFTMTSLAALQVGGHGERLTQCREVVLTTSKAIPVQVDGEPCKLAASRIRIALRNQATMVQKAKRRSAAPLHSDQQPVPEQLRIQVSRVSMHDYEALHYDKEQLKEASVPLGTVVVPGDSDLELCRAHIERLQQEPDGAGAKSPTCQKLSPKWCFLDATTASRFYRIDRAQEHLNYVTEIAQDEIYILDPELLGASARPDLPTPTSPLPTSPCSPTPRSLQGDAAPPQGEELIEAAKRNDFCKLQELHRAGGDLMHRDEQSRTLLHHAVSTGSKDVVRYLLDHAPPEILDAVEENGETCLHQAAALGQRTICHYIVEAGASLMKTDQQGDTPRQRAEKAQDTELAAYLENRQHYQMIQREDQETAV
Chain of DGKα (P23743 whole entry, looked up): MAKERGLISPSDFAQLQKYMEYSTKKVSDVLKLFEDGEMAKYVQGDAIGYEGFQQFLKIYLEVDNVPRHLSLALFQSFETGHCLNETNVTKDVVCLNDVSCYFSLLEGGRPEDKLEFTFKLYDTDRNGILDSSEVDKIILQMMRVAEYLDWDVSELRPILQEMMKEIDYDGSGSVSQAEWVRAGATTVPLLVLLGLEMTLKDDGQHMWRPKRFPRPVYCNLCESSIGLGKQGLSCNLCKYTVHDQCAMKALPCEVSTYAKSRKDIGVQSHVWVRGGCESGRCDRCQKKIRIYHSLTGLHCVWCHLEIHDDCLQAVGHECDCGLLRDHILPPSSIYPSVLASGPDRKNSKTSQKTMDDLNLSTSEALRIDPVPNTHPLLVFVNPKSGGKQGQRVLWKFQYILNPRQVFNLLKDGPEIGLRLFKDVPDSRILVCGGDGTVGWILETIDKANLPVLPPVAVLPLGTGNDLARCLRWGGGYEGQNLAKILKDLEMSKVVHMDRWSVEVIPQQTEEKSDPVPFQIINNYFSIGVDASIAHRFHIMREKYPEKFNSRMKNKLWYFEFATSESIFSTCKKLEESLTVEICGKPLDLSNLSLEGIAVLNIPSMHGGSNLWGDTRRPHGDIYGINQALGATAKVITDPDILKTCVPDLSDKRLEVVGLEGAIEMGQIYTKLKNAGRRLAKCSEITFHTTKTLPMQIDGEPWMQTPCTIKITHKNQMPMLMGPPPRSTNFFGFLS

Take `Cn1c(=O)cc(N2CCC(Oc3ccc(C4CCCC4)cc3)CC2)c2nc(C#N)ccc21` [Example 58, 8-(4-(4-cyclopentylphenoxy)piperidin-1-yl)-5-methyl-6-oxo-5,6-dihydro-1,5-naphthyridine-2-carbonitrile]: the IC50 in assay [1] (setting [4]) is 340 nM; in assay [2] (setting [5]), 2.9 µM. Further, the EC50 in assay [3] (setting [6]) is 5.9 µM.

Take `C[C@@H]1CN(c2cc(=O)n(C)c3ccc(C#N)nc23)CC[C@H]1Oc1ccc(C2CCCC2)cc1` [Example 100, 8-((3R,4R)-4-(4-cyclopentylphenoxy)-3-methylpiperidin-1-yl)-5-methyl-6-oxo-5,6-dihydro-1,5-naphthyridine-2-carbonitrile]: the values for the IC50 in assay [1] (setting [4]) and in assay [2] (setting [5]) were 110 nM and 28 µM, respectively. In addition, the EC50 in assay [3] (setting [6]) is 2.7 µM.

As for `CC(C)c1ccc(O[C@H]2CCN(c3cc(=O)n(C)c4ccc(C#N)nc34)C[C@H]2C)cc1` (single isomer, unassigned) [Example 184], the IC50 in assay [1] (Table A, liposome (LIPGLO) assay, read-out: DGKα) is 1400 nM; in assay [2] (Table A, liposome (LIPGLO) assay, read-out: DGKζ), 6 µM. Moreover, the EC50 in assay [3] (human whole blood IFN-γ, read-out: INFg Whole Blood) was 4 µM.

In the case of `Cc1ccc(O[C@@H]2CCN(c3cc(=O)n(C)c4ccc(C#N)nc34)C[C@H]2C)cc1` (single isomer, unassigned) [Example 120], the figures for the IC50 in assay [1] (setting [4]) and in assay [2] (setting [5]) were 350 nM and 73 µM, respectively. Besides, the EC50 in assay [3] (setting [6]) turned out to be 4.7 µM.

For the compound `C[C@@H]1CN(c2cc(=O)n(C)c3ccc(C#N)nc23)CC[C@H]1Oc1cccc(C2CC2)c1` [Example 91, 8-((3R,4R)-4-(3-cyclopropylphenoxy)-3-methylpiperidin-1-yl)-5-methyl-6-oxo-5,6-dihydro-1,5-naphthyridine-2-carbonitrile], the IC50 in assay [1] (setting [4]) was found to be 65 nM; in assay [2] (setting [5]), 14 µM. Besides, the EC50 in assay [3] (setting [6]) came out at 4.4 µM.

Consider `C[C@@H]1CN(c2cc(=O)n(C)c3ccc(C#N)nc23)CC[C@H]1Oc1ccc(C2CCCC2)cc1` (single isomer, unassigned) [Example 102], for which the IC50 in assay [1] (setting [4]) came to 68 nM; in assay [2] (setting [5]), 83 µM. For the same compound, in assay [3] (setting [7]), the EC50 is 3.3 µM.

Regarding `Cn1c(=O)cc(N2CCC(Oc3ccc(OC(C)(C)C)cc3)CC2)c2nc(C#N)ccc21` [Example 65, 8-(4-(4-(tert-butoxy)phenoxy)piperidin-1-yl)-5-methyl-6-oxo-5,6-dihydro-1,5-naphthyridine-2-carbonitrile], the IC50 in assay [1] (setting [4]) was 560 nM; in assay [2] (setting [5]) it was 3.3 µM. Further, the EC50 in assay [3] (setting [6]) is 6.8 µM.

For the compound `CCC(C)(C)c1ccc(O[C@H]2CCN(c3cc(=O)n(C)c4ccc(C#N)nc34)C[C@H]2C)cc1` [Example 169, 5-methyl-8-((3R,4S)-3-methyl-4-(4-(tert-pentyl)phenoxy)piperidin-1-yl)-6-oxo-5,6-dihydro-1,5-naphthyridine-2-carbonitrile], the IC50 in assay [1] (read-out: DGKα LIPGLO IC50) is 600 nM; in assay [2] (read-out: DGKζ LIPGLO IC50), 1.4 µM. The EC50 in assay [3] (setting [6]) stood at 1.7 µM.

As to `Cn1c(=O)cc(N2CCC(Oc3ccc(C(C)(C)C)nn3)CC2)c2nc(C#N)ccc21` [Example 68, 8-(4-((6-(tert-butyl)pyridazin-3-yl)oxy)piperidin-1-yl)-5-methyl-6-oxo-5,6-dihydro-1,5-naphthyridine-2-carbonitrile], the IC50 came out at 1700 nM in assay [1] (setting [4]) and 1.7 µM in assay [2] (setting [5]). In addition, the EC50 in assay [3] (setting [6]) came out at 9.6 µM.

In the case of `CCC(C)(C)c1ccc(O[C@H]2CCN(c3cc(=O)n(C)c4ccc(C#N)nc34)C[C@H]2C)cc1` (single isomer, unassigned) [Example 171], the IC50 in assay [1] (read-out: DGKα LIPGLO IC50) came to 1400 nM; in assay [2] (read-out: DGKζ LIPGLO IC50), 3.7 µM. In addition, in assay [3] (setting [7]), the EC50 is 3 µM.

Turning to `Cc1cccc(O[C@@H]2CCN(c3cc(=O)n(C)c4ccc(C#N)nc34)C[C@H]2C)c1` [Example 107, 5-methyl-8-((3R,4R)-3-methyl-4-(m-tolyloxy)piperidin-1-yl)-6-oxo-5,6-dihydro-1,5-naphthyridine-2-carbonitrile], the IC50 in assay [1] (DGKα LIPGLO IC50) amounted to 130 nM; in assay [2] (DGKζ LIPGLO IC50) it was 24 µM. Moreover, in assay [3] (setting [6]), the EC50 was found to be 13 µM.

Take `Cn1c(=O)cc(N2CCC(Oc3cnc4ccccc4n3)CC2)c2nc(C#N)ccc21` [Example 69, 5-methyl-6-oxo-8-(4-(quinoxalin-2-yloxy)piperidin-1-yl)-5,6-dihydro-1,5-naphthyridine-2-carbonitrile]: the IC50 in assay [1] (setting [4]) was 5700 nM; in assay [2] (setting [5]) it was 1.4 µM. In addition, in assay [3] (setting [6]), the EC50 is 17 µM.

In the case of `CCCCc1ccc(OC2CCN(c3cc(=O)n(C)c4ccc(C#N)nc34)CC2)cc1` [Example 56, 8-(4-(4-butylphenoxy)piperidin-1-yl)-5-methyl-6-oxo-5,6-dihydro-1,5-naphthyridine-2-carbonitrile], the IC50 is 840 nM in assay [1] (setting [4]) and 13 µM in assay [2] (setting [5]). Moreover, in assay [3] (setting [6]), the EC50 is 3.8 µM.

Consider `CC(C)c1cccc(O[C@@H]2CCN(c3cc(=O)n(C)c4ccc(C#N)nc34)C[C@H]2C)c1` [Example 122, 8-((3R,4R)-4-(3-isopropylphenoxy)-3-methylpiperidin-1-yl)-5-methyl-6-oxo-5,6-dihydro-1,5-naphthyridine-2-carbonitrile], for which the IC50 came out at 17 nM in assay [1] (setting [4]) and 28 µM in assay [2] (setting [5]). Further, the EC50 in assay [3] (setting [6]) is 5.8 µM.

For `CCC(C)(C)c1ccc(O[C@@H]2CCN(c3cc(=O)n(C)c4ccc(C#N)nc34)C[C@H]2C)cc1` (single isomer, unassigned) [Example 84], the values for the IC50 in assay [1] (setting [4]) and in assay [2] (setting [5]) were 48 nM and 23 µM, respectively. Further, in assay [3] (setting [7]), the EC50 stood at 1.2 µM.

As to `CC[C@@H]1CN(c2cc(=O)n(C)c3ccc(C#N)nc23)CC[C@H]1Oc1ccc(OC(C)(C)C)cc1` (single isomer, unassigned) [Example 159], the values for the IC50 in assay [1] (setting [4]) and in assay [2] (setting [5]) were 130 nM and 2.3 µM, respectively. Further, in assay [3] (setting [6]), the EC50 worked out at 4.2 µM.

With `CCC(C)(C)c1ccc(O[C@@H]2CCN(c3cc(=O)n(C)c4ccc(C#N)nc34)C[C@H]2C)cc1` [Example 82, 5-methyl-8-((3R,4R)-3-methyl-4-(4-(tert-pentyl)phenoxy)piperidin-1-yl)-6-oxo-5,6-dihydro-1,5-naphthyridine-2-carbonitrile], the IC50 in assay [1] (read-out: DGKα LIPGLO IC50) came to 30 nM; in assay [2] (read-out: DGKζ LIPGLO IC50), 3.9 µM. The EC50 in assay [3] (setting [6]) amounted to 0.65 µM.

With `CC(C)c1ccc(O[C@H]2CCN(c3cc(=O)n(C)c4ccc(C#N)nc34)C[C@H]2C)cc1` [Example 182, 8-((3R,4S)-4-(4-isopropylphenoxy)-3-methylpiperidin-1-yl)-5-methyl-6-oxo-5,6-dihydro-1,5-naphthyridine-2-carbonitrile], the IC50 amounted to 1100 nM in assay [1] (setting [4]) and 1.8 µM in assay [2] (setting [5]). In assay [3] (setting [7]), the EC50 worked out at 2.8 µM.

For the compound `Cc1cccc(O[C@@H]2CCN(c3cc(=O)n(C)c4ccc(C#N)nc34)C[C@H]2C)c1` (single isomer, unassigned) [Example 108], the IC50 came out at 910 nM in assay [1] (setting [4]) and 11 µM in assay [2] (setting [5]). The EC50 in assay [3] (setting [6]) is 3 µM.

With `C[C@@H]1CN(c2cc(=O)n(C)c3ccc(C#N)nc23)CC[C@H]1Oc1ccc(C2CCCC2)cc1` (single isomer, unassigned) [Example 101], the IC50 in assay [1] (setting [4]) was 430 nM; in assay [2] (setting [5]), 6.8 µM. The EC50 in assay [3] (setting [7]) amounted to 1.4 µM.

`Cn1c(=O)cc(N2CCC(Oc3ccc(C4CC4)cc3)CC2)c2nc(C#N)ccc21` [Example 59, 8-(4-(4-cyclopropylphenoxy)piperidin-1-yl)-5-methyl-6-oxo-5,6-dihydro-1,5-naphthyridine-2-carbonitrile]: the IC50 in assay [1] (setting [4]) worked out at 1000 nM; in assay [2] (setting [5]), 3.7 µM. Moreover, the EC50 in assay [3] (setting [6]) was 6.4 µM.
